Publication PMC7238042, “π-π-Stacked Poly(ε-caprolactone)-b-poly(ethylene glycol) Micelles Loaded with a Photosensitizer for Photodynamic Therapy” (Pharmaceutics, 2020)
Where two headings read alike, the source gives them in different places.

Assays:
in vivo [1] = settings: female, Balb/c nude, mouse, intravenous, 0.3 mg/kg
Procedure: (§1) Mice were inoculated with 1 × 10^6 A431 cells suspended in 100 μL PBS subcutaneously into the right flank. […] Tumors were measured using a digital caliper. The tumor volume V (in mm^3) was calculated using the equation V = (π/6)LS^2, in which L is the largest and S is the smallest superficial diameter [30].
(§2) Tumors and a panel of organs (spleen, liver, lung, heart, kidney, skin, femur, and brain) were excised and imaged ex vivo by 2D fluorescence reflectance imaging (FRI) using a Pearl Trilogy imager from LI-COR and then stored at −80 °C until further processing for quantification. Organs and tumors from three untreated animals were used as controls.
(§3) To quantify the content of mTHPC and micelles in the tumors and the different organs, the excised tissue samples were treated as follows. First, 100 μL of RIPA lysis buffer was added to 100 mg of sliced tissues or organs. The mixture was homogenized by a tissue grinder (Percellys 24) at a speed of 6000/s for 60 s (for femur samples, 6000/s for 180 s) and the homogenate was subsequently aliquoted. To determine the mTHPC concentration in the samples, 1 volume of an aliquot of the homogenate (30 μL) was mixed with 120 μL of acetonitrile/DMSO (4:1 v/v) and vortexed for 1 min. The mixture was then centrifuged at 15,000× g for 10 min. Next, 50 μL of the obtained supernatant was injected into the HPLC system consisting of a Waters X Select Charged Surface Hybrid (CSH) C18 3.5 μm 4.6 × 150 mm column coupled with a fluorescence detector set at λex 420 nm and λem 650 nm to analyze mTHPC concentration [38]. The mobile phase was 0.1 % trifluoroacetic acid in acetonitrile/water (60:40, v/v) at a flow rate of 1 mL/min. The measuring range was from 0.005 to 4 μg/mL and the detection limit was 5 ng/mL. Calibration curves were obtained from a series of standard solutions of mTHPC in DMSO, to which 45 μL of the corresponding homogenized tissue samples obtained from control mice (i.e., not treated with any formulations) was added, followed by mTHPC extraction using acetonitrile/DMSO (4:1, v/v) and HPLC analysis.
(§4) To determine the concentration of Cy7-labeled micelles in the tissue homogenates, 1 volume of another aliquot of the homogenate (30 μL) was vortex-mixed with 2 volumes of RIPA lysis buffer (60 μL) for 1 min. The fluorescence of Cy7 in the mixture (20 μL) was detected at the 800 nm channel (i.e., λex 785 nm and λem 820 nm), using a LI-COR Odyssey scanner imaging system, and a calibration curve was obtained using samples with different concentrations of Cy7-labeled copolymer in a mixture of RIPA buffer (1 volume) and the corresponding homogenized tumor or organ samples (2 volumes) obtained from non-treated mice.

HeLa cells = system: HeLa cells; set-up: method as in PMID 32142290; settings: cited from earlier work
[2] = Biodistribution in A431 tumor-bearing mice (Cy7 fluorescence and mTHPC HPLC); settings: 4 h
Procedure: as §1, §2, §3, §4

in vivo [3] = settings: female, Balb/c nude, mouse, plasma, iv, 300 ug/kg
Procedure: as §1
(§5) For the latter, mice were killed through cervical dislocation while under deep isoflurane anesthesia. […] The plasma supernatant was collected, extracted using acetonitrile/DMSO (4:1, v/v), and analyzed by high-performance liquid chromatography (HPLC) and a LI-COR Odyssey imaging system to quantify the amount of mTHPC and Cy7-labeled micelles, respectively, as previously described [38]. Plasma concentration curves were analyzed by non-compartmental analysis with the PKSolver add-in for Microsoft Excel [40].

[4] = Side effects after i.v. administration in mice; type: in vivo, Balb/c nude mice
[5] = Circulation kinetics in A431 tumor-bearing mice (plasma Cy7 and mTHPC); settings: mTHPC detection, i.v. 300 µg mTHPC/kg
Procedure: as §1, §5

A431 cells = system: A431 cells; set-up: method as in PMID 32142290; settings: same conditions, cited from earlier work
cells = system: cells; set-up: method as in PMID 32142290; settings: cited from earlier work
[6] = set-up: method as in PMID 25388924; settings: cited from earlier work

Question: With `Oc1cccc(-c2c3nc(c(-c4cccc(O)c4)c4ccc([nH]4)c(-c4cccc(O)c4)c4nc(c(-c5cccc(O)c5)c5ccc2[nH]5)CC4)C=C3)c1` [Free mTHPC, meta-tetra(hydroxyphenyl)chlorin] as the compound, how does the tissue uptake at 4 h (in vivo [1]; liver) read?
Answer: Its tissue uptake at 4 h is ~15 %ID/g.

Question: And the tissue uptake at 24 h (in vivo [1]; liver)?
Answer: The tissue uptake at 24 h was ~5 %ID/g.

Question: And the tissue uptake at 24 h (in vivo [1]; tumor, kidney, heart, femur)?
Answer: Its tissue uptake at 24 h is 2 to 3 %ID/g.

Question: What about the EC50 (HeLa cells) of the same compound?
Answer: Its EC50 is 1.2 [38] µg/mL.

Question: And the EC50 (HeLa cells; listed as free mTHPC)?
Answer: The EC50 was ~ 1.5 µg/mL.

Question: What about the “total mTHPC accumulation in liver” value [2] of the same compound?
Answer: The value was ~ 15 % ID per liver.

Question: And the “total mTHPC accumulation in spleen or lung” value [2]?
Answer: The value was ~ 1 % ID per spleen or lung.

Question: What about the Vd (in vivo [3]) of the same compound?
Answer: The Vd was 0.12 L/kg.

Question: And the clearance (in vivo [3])?
Answer: Its clearance is 0.22 mL/min/kg.

Question: And the “side effects after i.v. administration” value ([4]; 300 µg mTHPC/kg, free mTHPC in ethanol/propylene glycol/PBS 20:30:50, micelles ~1 mg polymer, also reported in ref 38)?
Answer: Its value is “tachypnea, passiveness immediately post-injection”.

Question: And the “loss of body weight” value ([4]; on average, within 24 h after i.v. injection)?
Answer: Its value is ~ 1 g.

Question: What about the AUC [5] of the same compound?
Answer: Its AUC is 442 h*%.

Question: What about the “Half-life Phase α” value ([5]; estimated from first hour) of the same compound?
Answer: The value was ≤0.5 h.

Question: And the “Half-life Phase β” value ([5]; non-compartmental analysis)?
Answer: Its value is 2.1 h.

Question: What about the EC50 (A431 cells; listed as free mTHPC) of the same compound?
Answer: The EC50 was ~ 1.5 µg/mL.

Question: What about the EC50 (A431 cells) of the same compound?
Answer: Its EC50 is 1.6 ± 0.1 [38] µg/mL.

Question: What about the “mTHPC concentration toxic to cells without illumination” value (cells; after 7 h) of the same compound?
Answer: Its value is “higher than 50 µg/mL”.

Question: And the “mTHPC concentration toxic to cells without illumination” value (cells; after 24 h)?
Answer: Its value is > 20 µg/mL.

Question: For “axially solketal-substituted silicon phthalocyanine [Si(sol)2Pc]”, which quenching concentration ([6]; in aromatic-substituted thermosensitive micelles, 0.45 mg/mL polymer) is on record?
Answer: Its quenching concentration is 16 µg/mL.

Question: And the quenching concentration ([6]; in corresponding non-aromatic micelles)?
Answer: Its quenching concentration is ~ 0.05 µg/mL.
